Reference: US5849736A, “Isoxazoline and isoxazole fibrinogen receptor antagonists” (The DuPont Merck Pharmaceutical Company, priority 1995, dated 1998)
Where a name gives a salt, the structure may show the parent alone. Read-outs that look alike come from different tables or passages of the source.

Test system: platelet aggregation in human platelet rich plasma (PRP)
Test: Platelet Aggregation Assay (platelet rich plasma, with or without esterase pretreatment)
Format: cell-based
Settings: Platelet
Summary of the method: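 Human citrated PRP from drug-free donors, PPP as 100% transmittance blank; compounds added at various concentrations before agonist (ADP, collagen, arachidonate, epinephrine or thrombin), aggregation followed by light transmittance. Ester prodrugs pretreated (10^-3 M F.C.) with 100 IU/mL porcine liver esterase, 2 h 37 °C; 8 min 37 °C preincubation, then 100 μM ADP, 5 min; % inhibition vs control, IC50.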

[1] = preincubated with 100 IU/mL porcine liver esterase 2 hours at 37° C., 100 μM ADP, read-out: Platelet Aggregation Assay IC50 (with esterase)
[2] = without esterase, read-out: Platelet Aggregation Assay IC50 (without esterase)

SMILES: COC(=O)C(CNC(=O)CC1CC(c2ccc(C(=N)N)cc2)=NO1)NS(=O)(=O)c1ccc(Br)s1 (stereo not shown) [Example 549]
- IC50 [1]: < 10 µM

SMILES: COC(=O)C(CNC(=O)CC1CC(c2ccc(C(=N)N)cc2)=NO1)NS(=O)(=O)c1ccc(-c2cc(C(F)(F)F)n(C)n2)s1 (stereo not shown) [Example 550]
- IC50 [1]: < 10 µM

SMILES: COC(=O)C(CNC(=O)CC1CC(c2ccc(C(=N)N)cc2)=NO1)NS(=O)(=O)c1ccc(-c2ccon2)s1 (stereo not shown) [Example 551]
- IC50 [1]: < 10 µM

SMILES: COC(=O)C(CNC(=O)CC1CC(c2ccc(C(=N)N)cc2)=NO1)NS(=O)(=O)c1ccc(-c2ccccn2)s1 (stereo not shown) [Example 552]
- IC50 [1]: < 10 µM

SMILES: COC(=O)C(CNC(=O)CC1CC(c2ccc(C(=N)N)cc2)=NO1)NS(=O)(=O)c1sc(NC(C)=O)nc1C (stereo not shown) [Example 553]
- IC50 [1]: < 10 µM

SMILES: COC(=O)C(CNC(=O)CC1CC(c2ccc(C(=N)N)cc2)=NO1)NS(=O)(=O)c1cc2ccccc2s1 (stereo not shown) [Example 555]
- IC50 [1]: < 10 µM

SMILES: COC(=O)C(CNC(=O)CC1CC(c2ccc(C(=N)N)cc2)=NO1)NS(=O)(=O)c1sc2ccccc2c1C (stereo not shown) [Example 556]
- IC50 [1]: < 10 µM

SMILES: Cc1cccc(S(=O)(=O)N[C@@H](CNC(=O)CC2CC(c3ccc(C(=N)N)cc3)=NO2)C(=O)O)c1 (stereo partly drawn) [Example 587A, N^2-3-methylphenylsulfonyl-N^3-[3-(4-amidinophenyl)isoxazolin-5S-ylacetyl]-S-2,3-diaminopropionic acid]
- IC50 [2]: < 10 µM

SMILES: CCCCOC(=O)N[C@@H](CNC(=O)CC1CC(c2ccc(NC(=N)N)cc2)=NO1)C(=O)OC (stereo partly drawn) [Example 602, Methyl N^2-n-butyloxycarbonyl-N^3-[3-(4-guanidinophenyl)isoxazolin-5-(R,S)-ylacetyl]-(S)-2,3-diaminopropionate, trifluoroacetic acid salt]
- IC50 [1]: < 10 µM

SMILES: COC(=O)CC(CNS(=O)(=O)N(C)C)NC(=O)CC1CC(c2ccc(C(=N)N)cc2)=NO1 (stereo not shown) [Example 611]
- IC50 [1]: < 10 µM

SMILES: COC(=O)CC(CN1CCCC1)NC(=O)CC1CC(c2ccc(C(=N)N)cc2)=NO1 (stereo not shown) [Example 612]
- IC50 [1]: < 10 µM

SMILES: CCCCOC(=O)NC(CNC(=O)CC1CC(c2ccc(C(=N)N)cc2F)=NO1)C(=O)OC (stereo not shown) [Example 613]
- IC50 [1]: < 10 µM

SMILES: CCCCOC(=O)NC(CNC(=O)CC1CC(CCCC2CCNCC2)=NO1)C(=O)OC (stereo not shown) [Example 616]
- IC50 [2]: < 10 µM

SMILES: Cn1cnc(S(=O)(=O)NC(CNC(=O)CC2CC(c3ccc(C(=N)N)cc3)=NO2)C(=O)O)c1 (stereo not shown) [Example 643]
- IC50 [1]: < 10 µM

SMILES: Cc1nc(C)c(S(=O)(=O)NC(CNC(=O)CC2CC(c3ccc(C(=N)N)cc3)=NO2)C(=O)O)s1 (stereo not shown) [Example 644]
- IC50 [1]: < 10 µM

SMILES: COC(=O)[C@H](CN(C)C(=O)CC1CC(c2ccc(C(=N)N)cc2)=NO1)NC(=O)OCc1ccccc1 (stereo partly drawn) [Example 651, Methyl N^2-benzyloxycarbonyl-N^3-methyl-N^3-[3-(4-amidinophenyl)isoxazolin-5-(R,S)-ylacetyl]-(S)-2,3-diaminopropionate, trifluoroacetic acid salt]
- IC50 [1]: < 10 µM

SMILES: COC(=O)C(CNC(=O)Cc1cc(-c2ccc(C(=N)N)cc2)no1)NC(=O)OCc1ccccc1 (stereo not shown) [Example 727]
- IC50 [1]: < 10 µM

SMILES: CCCCOC(=O)NC(CNC(=O)Cc1cc(-c2ccc(C(=N)N)cc2)no1)C(=O)OC (stereo not shown) [Example 729]
- IC50 [1]: < 10 µM

SMILES: Cc1cccc(S(=O)(=O)NC(CNC(=O)Cc2cc(-c3ccc(C(=N)N)cc3)no2)C(=O)O)c1 (stereo not shown) [Example 798]
- IC50 [1]: < 10 µM

SMILES: CCCCOC(=O)N[C@@H](CNC(=O)CC1=NOC(c2ccc(C(=N)N)cc2)C1)C(=O)OC (stereo partly drawn) [Example 829, Methyl N^2-n-butyloxycarbonyl-N^3-[5-(4-amidinophenyl)isoxazolin-3-ylacetyl]-(2S)-2,3-diaminopropionate]
- IC50 [1]: < 10 µM

SMILES: N=C(N)NCCCC1CC(C(=O)NCC(NC(=O)OCc2ccccc2)C(=O)O)=NO1 (stereo not shown) [Example 1284]
- IC50 [1]: < 10 µM

SMILES: N=C(N)NCCCCC1CC(C(=O)NCC(NC(=O)OCc2ccccc2)C(=O)O)=NO1 (stereo not shown) [Example 1321]
- IC50 [1]: < 10 µM

SMILES: N=C(N)NCCC1CC(C(=O)NCC(NC(=O)OCc2ccccc2)C(=O)O)=NO1 (stereo not shown) [Example 1525]
- IC50 [1]: < 10 µM

SMILES: N=C(N)NCCCC1=NOC(CC(=O)NCC(NC(=O)OCc2ccccc2)C(=O)O)C1 (stereo not shown) [Example 1694]
- IC50 [1]: < 10 µM

SMILES: N=C(N)NCCCCC1=NOC(CC(=O)NCC(NC(=O)OCc2ccccc2)C(=O)O)C1 (stereo not shown) [Example 1731]
- IC50 [1]: < 10 µM

SMILES: Cc1noc(C)c1S(=O)(=O)N[C@@H](CNC(=O)C[C@H]1CC(c2ccc(C(=N)N)cc2)=NO1)C(=O)O [Example 2104]
- IC50 [1]: < 10 µM

SMILES: N=C(N)NCCC1=NOC(CC(=O)NCC(NC(=O)OCc2ccccc2)C(=O)O)C1 (stereo not shown) [Example 2109]
- IC50 [1]: < 10 µM

SMILES: N=C(N)NCCCCCC1=NOC(CC(=O)NCC(NC(=O)OCc2ccccc2)C(=O)O)C1 (stereo not shown) [Example 2110]
- IC50 [1]: < 10 µM

SMILES: COC(=O)C(CNC(=O)CC1CC(c2ccc(C(=N)NCc3ccccc3OC)cc2)=NO1)NS(=O)(=O)c1ccccc1C (stereo not shown) [Example 2111]
- IC50 [1]: < 10 µM

SMILES: COc1ccccc1CNC(=N)c1ccc(C2=NOC(CC(=O)NCC(NS(=O)(=O)c3ccccc3C)C(=O)O)C2)cc1 (stereo not shown) [Example 2112]
- IC50 [1]: < 10 µM

SMILES: CCCCNC(=N)c1ccc(C2=NOC(CC(=O)NCC(NS(=O)(=O)c3ccccc3C)C(=O)OC)C2)cc1 (stereo not shown) [Example 2113]
- IC50 [1]: < 10 µM

SMILES: CCCCNC(=N)c1ccc(C2=NOC(CC(=O)NCC(NS(=O)(=O)c3ccccc3C)C(=O)O)C2)cc1 (stereo not shown) [Example 2114]
- IC50 [1]: < 10 µM

SMILES: CCNC(=N)c1ccc(C2=NOC(CC(=O)NCC(NS(=O)(=O)c3ccccc3C)C(=O)OC)C2)cc1 (stereo not shown) [Example 2115]
- IC50 [1]: < 10 µM

SMILES: CCNC(=N)c1ccc(C2=NOC(CC(=O)NCC(NS(=O)(=O)c3ccccc3C)C(=O)O)C2)cc1 (stereo not shown) [Example 2116]
- IC50 [1]: < 10 µM

SMILES: COC(=O)C(CNC(=O)CC1CC(c2ccc(C(=N)N)cc2)=NO1)NS(=O)(=O)c1ccc(S(=O)(=O)c2ccccc2)s1 (stereo not shown) [Example 2118]
- IC50 [1]: < 10 µM

SMILES: N=C(N)c1ccc(C2=NOC(CC(=O)NCC(NS(=O)(=O)c3ccc(S(=O)(=O)c4ccccc4)s3)C(=O)O)C2)cc1 (stereo not shown) [Example 2119]
- IC50 [1]: < 10 µM

SMILES: CC(C)(C)OC(=O)NC(=N)c1ccc(C2=NOC(CC(=O)NCC(NS(=O)(=O)c3ccc(S(=O)(=O)c4ccccc4)s3)C(=O)O)C2)cc1 (stereo not shown) [Example 2120]
- IC50 [1]: < 10 µM

SMILES: N=C(N)NCCC1CC(CCC(=O)NCC(NC(=O)OCc2ccccc2)C(=O)O)=NO1 (stereo not shown) [Example 2280]
- IC50 [1]: < 10 µM

SMILES: N=C(N)NCC1CC(CCC(=O)NCC(NC(=O)OCc2ccccc2)C(=O)O)=NO1 (stereo not shown) [Example 2281]
- IC50 [1]: < 10 µM

SMILES: N=C(N)NCCC1=NOC(CCC(=O)NCC(NC(=O)OCc2ccccc2)C(=O)O)C1 (stereo not shown) [Example 2400]
- IC50 [1]: < 10 µM

SMILES: N=C(N)NCCCC1=NOC(C(=O)NCC(NC(=O)OCc2ccccc2)C(=O)O)C1 (stereo not shown) [Example 2401]
- IC50 [1]: < 10 µM

SMILES: N=C(N)NCCCCCC1=NOC(C(=O)NCC(NC(=O)OCc2ccccc2)C(=O)O)C1 (stereo not shown) [Example 2402]
- IC50 [1]: < 10 µM

SMILES: N=C(N)NCCCC1=NOC(CCC(=O)NCC(NC(=O)OCc2ccccc2)C(=O)O)C1 (stereo not shown) [Example 2403]
- IC50 [1]: < 10 µM

SMILES: N=C(N)NCCCCC1=NOC(CCC(=O)NCC(NC(=O)OCc2ccccc2)C(=O)O)C1 (stereo not shown) [Example 2404]
- IC50 [1]: < 10 µM

SMILES: N=C(N)NCCC1=NOC(C(=O)NCC(NC(=O)OCc2ccccc2)C(=O)O)C1 (stereo not shown) [Example 2405]
- IC50 [1]: < 10 µM

SMILES: N=C(N)NCCCCC1=NOC(C(=O)NCC(NC(=O)OCc2ccccc2)C(=O)O)C1 (stereo not shown) [Example 2406]
- IC50 [1]: < 10 µM
